Data set [1] has as its system human ovarian cancer stem cells 882CSC.
Experimental: (§1) Human monocyte-derived DCs were generated using previously described methods. […] The DCs were washed and plated in 6-well plates at a concentration of 5×10^6 cells/well IFN-γ (1000 unit/ml), and then monophosphoryl lipid A (MPLA, 20-50 μg/ml) (Cat# L6895, Sigma, St. Louis) was added into the wells to mature the DC for 24 hr or 48 hrs.
(§2) In order to evaluate antigen-specific immune responses, CD8 T cells were isolated from fresh or frozen apheresis by positive selection using Dynabeads® CD8 Positive Isolation Kit (Life Technologies, Grand Island, N.Y.) and co-cultured with autologous mDC for four weeks. DCs were added weekly. Briefly, mDCs were pulsed with synthetic peptides (10 μg/μl) for 6-8 hours at 37° C., and then treated with 20 ug/ml Mitomycin C (Sigma-Aldrich, St. Louis, Mo.) for 25 min at 37° C. and 5% CO2. The mDCs (5×10^4 cells/well) were co-cultured with autologous CD8^+ T cells (5×10^5 cells/well) in a 96-well plate at 37° C., 5% CO2 in a final volume of 200 μl CTL medium (IMDM with 0.24 mM Asparagine, 0.55 mM L-Arginine, 1.5 mM L-Glutamine and 10% heat inactivated human AB serum). Half of the medium was replaced every other day by fresh culture medium containing 40 IU/ml IL-2 and 20 ng/ml IL-7, the 3rd and 4th week 40 U/ml of IL-2 was replaced with 25 ng/ml IL-15. In the culture medium, peptides could also be added to the culture well at a final concentration of 1-2 μg/ml.
(§3) DDAO-SE labeled target cells were mixed with effector cells at a 1:10 ratio in round-bottom 96 well plate and incubated overnight at 37° C., 5% CO2. The cells were washed, fixed, and permeabilized with Fix/Perm solution (BD Biosciences) and then stained for 30 minutes at 4° C. with 10 μl PE-labeled anti-cleaved caspase-3 monoclonal antibody, followed by Cyan flow cytometric analysis (Beckman Coulter, Inc).
Data set [2] deals with human ovarian cancer stem cells 1031CSC.
Experimental: as §1, §2, §3
Data set [3] concerns the target HLA-A*0201 molecules on T2 cells (Homo sapiens, UniProt P04439, D140Y/D185E/D98H/E176V/E277Q/G131W/G231S/I119V/I121R/I166T/I218V/L300P/L318F/N151K/N90K/P208A/P217A/Q86G/Q94H/R138H/R169H/T345S). The data set is described as follows: T2 cell binding assay of HLA-A2 peptides. The settings on record: peptide 75 μg/ml; for binding with T2 cells (affinity in words): conclusion of Example 11; for affinity to HLA-A*0201 molecules (up-regulation of HLA-A*0201 molecules): FIG. 5A.

Data set [4] in a line: Immunogenicity in vitro of A2 peptide epitopes (Table 1). The format is cell-based. The settings on record: Table 1, no method given.
In data set [5] the test system is human ovarian cancer stem cells 882CSC. Put plainly: Killing assay of peptide-specific CTLs (DDAO-SE and cleaved caspase-3 method). Particulars: target:effector 1:10, overnight, cleaved caspase-3, FIG. 6A.
Experimental: as §1, §2, §3
In data set [6] the test system is human ovarian cancer stem cells 1031CSC. Described as above. Particulars: target:effector 1:10, overnight, cleaved caspase-3, FIG. 6B.
Experimental: as §1, §2, §3

Like-named read-outs stand apart in the source and are kept apart here. Where no end group is shown, it is not given here.

For the compound `CSCC[C@H](NC(=O)[C@@H](N)C(C)C)C(=O)N[C@@H](C)C(=O)NCC(=O)N[C@H](C(=O)NCC(=O)N[C@@H](CO)C(=O)N1CCC[C@H]1C(=O)N[C@@H](Cc1ccc(O)cc1)C(=O)N[C@H](C(=O)O)C(C)C)C(C)C` [HER2p773], the “cytotoxicity of peptide-specific CTLs against 882CSC” value (from here on “cytotoxicity … against 882CSC”) in data set [1] was “efficiently recognize and lyse”. Moreover, in data set [2], the “cytotoxicity of peptide-specific CTLs against 1031CSC” value (“cytotoxicity … against 1031CSC” below) is “efficiently recognize and lyse”.
Consider “KVLEYVIKV (listed as Homo sapiens) [MAGEA1p278]”, for which, in data set [3], the “binding with T2 cells (affinity in words)” value (“binding with T2 cells” below) is recorded as “high affinity binding”. Moreover, in data set [4], the Immunogenicity in vitro result is “Yes”.
As to SLLFLLFSL (listed as Homo sapiens), the Immunogenicity in vitro result in data set [4] is listed as “Yes”.
Regarding SLLMWITQC [NY-ESO-1p157], the Immunogenicity in vitro entry in data set [4] was “Yes”.
In the case of TLADFDPRV [EphA2p883], the “cytotoxicity … against 882CSC” value in data set [5] was “efficiently recognize and lyse”. In data set [6], the “cytotoxicity … against 1031CSC” value was “efficiently recognize and lyse”.
For “VLPLTVAEV (listed as Homo sapiens) [mesothelinp531]”, in data set [3], the “binding with T2 cells” value is given as “high affinity binding”. For the same compound, in data set [3] (overnight), the “affinity to HLA-A*0201 molecules (up-regulation of HLA-A*0201 molecules)” value is reported as “high affinities”. For the same compound, the Immunogenicity in vitro result in data set [4] was “Yes”.
As for “EIWTHSYKV (listed as Homo sapiens) [FOLR1p191]”, in data set [3], the “binding with T2 cells” value is “lower binding capacity”. In data set [3] (overnight), the “affinity to HLA-A*0201 molecules (up-regulation of HLA-A*0201 molecules)” value is listed as “low affinity”. Besides, the “MFI index (relative binding affinity fluorescence index)” value in data set [3] (overnight, FIG. 5B) is on record as “less than 1”. In addition, the Immunogenicity in vitro result in data set [4] is “Yes”.
For WLPFGFILI [IL-13Rα2p345], the “cytotoxicity … against 882CSC” value in data set [5] was “efficiently recognize and lyse”. Also, in data set [6], the “cytotoxicity … against 1031CSC” value was “efficiently recognize and lyse”.

(Values after patent publication US20140234351A1, “CANCER VACCINES AND VACCINATION METHODS” (ImmunoCellular Therapeutics, Ltd., priority 2013, published 2014).)
